Measurements from patent publication US20110313672A1, “CELLULAR ANTIOXIDANT ACTIVITY (CAA) ASSAY” (CORNELL UNIVERSITY, priority 2007, published 2011).
Where “and” joins values, the source holds several entries; their conditions need not be identical. Equal values may be shown once. Entries after “also recorded” stand apart in the source; their conditions may differ. Read-outs that look alike come from different tables or passages of the source.

Key:
HepG2 cells = experiment: Cellular antioxidant activity (CAA) assay: inhibition of peroxyl radical-induced DCFH oxidation; format: cell-based, human; conditions: for CAA value: Example 1, pure compounds, EC50 converted to quercetin equivalents
Procedure: Cells (e.g., human hepatocellular carcinoma cells; HepG2) are seeded at a density of e.g., 6×10^4/well on a 96-well microplate in 100 μL growth medium/well. It is preferred that only the inside wells of e.g., a 96-well microplate are used for the assay, since the outer wells have increased variation compared to that of the inner wells. Twenty-four hours after seeding the growth medium is removed and the wells are washed with PBS. Triplicate wells are treated for 1 h with 100 μL of a test compound (e.g., pure phytochemical compounds or fruit extracts) plus 25 μM DCFH-DA dissolved in treatment medium.
600 μM ABAP is then applied to the cells in 100 μL HBSS and the 96-well microplate is placed into a plate reader e.g., Fluoroskan Ascent FL plate-reader (ThermoLabsystems, Franklin, Mass.) at 37° C. Emission at 538 nm is measured with excitation at 485 nm, for example every 5 min for 1 h. Each plate should include triplicate control and blank wells: control wells contain cells treated with DCFH-DA and oxidant; blank wells contain cells treated with dye and HBSS without oxidant.
A test compound is assayed in multiple wells of e.g., a 96-well cell culture plate. Some wells are washed with 100 μL of phosphate-buffered saline (PBS) prior to the addition of ABAP, while other wells were not washed prior to the addition of ABAP. It was noted that the measured antioxidant activity of some fruit extracts (e.g., blueberries) was different when a PBS wash was used compared to when there was no PBS wash (see Table 2; FIGS. 3 and 4). This is likely due to non-specific binding of certain antioxidant compounds to the outer membrane, or a reduced uptake of the compound, thus the ratio of antioxidant activity values obtained with a PBS wash compared to a non-PBS wash indicates the bioavailability of the test compound. In order to accurately measure the intracellular antioxidant activity of a test compound, a PBS wash prior to the addition of a peroxyl initiator (e.g, ABAP) is necessary. The values obtained for cells assayed using a PBS wash should be compared to values obtained for the same cells assayed without a PBS wash. One of skill in the art can plan and perform experiments on a test compound in the presence and absence of a PBS wash, in order to accurately assess the intracellular antioxidant capacity of the test compound.
After blank subtraction from the fluorescence readings, the area under the curve of fluorescence versus time is integrated to calculate the cellular antioxidant activity (CAA) value at each concentration of pure phytochemical compound or fruit extract as follows:
where ∫SA is the integrated area under the sample fluorescence versus time curve and ∫CA is the integrated area from the control curve. The median effective dose (EC50) was determined for the pure phytochemical compounds and fruit extracts from the median effect plot of log (fa/fu) vs. log (dose), where fa is the fraction affected and fu is the fraction unaffected by the treatment. To quantify intra-experimental variation, the EC50 values are stated as mean±SD for triplicate sets of data obtained from the same experiment. Inter-experimental variation is obtained for some representative pure phytochemical compounds and fruit extracts by averaging the fluorescence values from triplicate wells in each trial to obtain one EC50 value per experiment and calculating the mean±SD for at least four trials. In each experiment, a standard is used, for example quecetin, thus permitting the cellular antioxidant activities for a test compounds to be expressed as μmol quercetin equivalents (QE)/100 μmol compound. Fruit extracts are expressed as μmol QE/100 g fruit. In order to compare the antioxidant quality of different fruits, cellular antioxidant activity (CAA) is also calculated as μmol QE/100 μmol total phenolics.
Human hepatocellular carcinoma HepG2 cells were seeded at a density of 6×10^4/well on a 96-well microplate in 100 μL growth medium/well. […]

[1] = Oxygen radical absorbance capacity (ORAC) assay; conditions: Example 3, flavonoids, mean ± SD, n ≧ 3
Procedure: The peroxyl radical scavenging efficacy of selected fruits was measured using the ORAC assay (Prior, R. L., et al (2003) J. Agric. Food Chem. 51:3273-3279). Briefly, 20 μL of blank, Trolox standard, or fruit extracts in 75 mM potassium phosphate buffer, pH 7.4 (working buffer), was added to triplicate wells in a black, clear-bottom, 96-well microplate. The triplicate samples were distributed throughout the microplate and were not placed side-by-side, to avoid any effects on readings due to location. In addition, no outside wells were used, as use of those wells results in greater variation. A volume of 200 μL of 0.96 μM fluorescein in working buffer was added to each well and incubated at 37° C. for 20 min, with intermittent shaking, before the addition of 20 μL of freshly prepared 119 mM ABAP in working buffer using a 12-channel pipetter. The microplate was immediately inserted into a Fluoroskan Ascent FL plate reader (ThermoLabsystems) at 37° C. The decay of fluorescence at 538 nm was measured with excitation at 485 nm every 4.5 min for 2.5 h. The areas under the fluorescence versus time curve for the samples minus the area under the curve for the blank were calculated and compared to a standard curve of the areas under the curve for 6.25, 12.5, 25, and 50 μM Trolox standards minus the area under the curve for blank. ORAC values were expressed as mean micromoles of Trolox equivalents (TE) per 100 g of fruit±SD for triplicate data from one experiment.
ORAC measurements were performed as described herein in Example 2.

[2] = Example 3, Table 7, no PBS wash
[3] = Homo sapiens, HepG2, Example 3, Table 7, PBS wash, flavonoids, mean ± SD, n=3, read-out: EC50
[4] = Homo sapiens, HepG2, Example 3, Table 7, no PBS wash, flavonoids, mean ± SD, n=3, read-out: EC50
[5] = Homo sapiens, HepG2, Example 1, Table 1, PBS wash, pure phytochemical compounds, mean ± SD, n=3, read-out: EC50 for inhibition of peroxyl radical-induced DCFH oxidation
[6] = Homo sapiens, HepG2, Example 1, Table 1, no PBS wash, pure phytochemical compounds, mean ± SD, n=3, read-out: EC50 for inhibition of peroxyl radical-induced DCFH oxidation
[7] = CAA assay, either protocol or protocol not specified
[8] = Example 3, Table 7, PBS wash, flavonoids, mean ± SD, n=3
[9] = Example 3, Table 7, no PBS wash, flavonoids, mean ± SD, n=3

| SMILES | CAA (HepG2 cells; Example 3, Table 7, PBS wash) | CAA (HepG2 cells; [2]) | EC50 (HepG2 cells; [3]) | EC50 (HepG2 cells; [4]) | ORAC [1] | EC50 (HepG2 cells; [5]) | EC50 (HepG2 cells; [6]) | cellular antioxidant activity, result in words (HepG2 cells; [7]) | other results |
| --- | --- | --- | --- | --- | --- | --- | --- | --- | --- |
| O=C(O[C@@H]1Cc2c(O)cc(O)cc2O[C@@H]1c1ccc(O)c(O)c1)c1cc(O)c(O)c(O)c1 [ECG, (−)-epicatechin gallate] | 31.9 ± 2.2 μmol of QE/100 μmol | 62.1 ± 1.9 μmol of QE/100 μmol | 25.6 ± 1.8 µM | 14.2 ± 0.4 µM | 7.71 ± 1.57 cde μmol of TE/μmol |  |  |  |  |
| Oc1cc(O)c2c(c1)O[C@H](c1cc(O)c(O)c(O)c1)[C@H](O)C2 [EGC, (−)-epigallocatechin] |  | 12.1 ± 2.2 μmol of QE/100 μmol | > 100 µM | 74.2 ± 12.9 µM | 3.11±0.73 μmol of TE/μmol and 3.11 ± 0.73 cde μmol of TE/μmol |  |  |  | cellular antioxidant activity, result in words (HepG2 cells; PBS wash protocol): low activity at the concentrations tested |
| O=c1c(O)c(-c2ccc(O)cc2)oc2cc(O)cc(O)c12 [Kaempferol, kaempferol] | 85.1 ± 2.4 μmol of QE/100 μmol | 74.6 ± 4.8 μmol of QE/100 μmol | 9.57 ± 0.27 µM | 11.9 ± 0.8 µM | 7.19 ± 1.29 def μmol of TE/μmol | 6.31 ± 0.21 µM | 7.85 ± 0.51 µM |  | CAA value (HepG2 cells; PBS wash): 81.1 ± 2.7 µmol QE/100 µmol; CAA value (HepG2 cells; no PBS wash): 75.3±4.7 μmol QE/100 μmol |
| O=c1cc(-c2ccc(O)c(O)c2)oc2cc(O)cc(O)c12 [Luteolin, luteolin] | 29.5 ± 2.1 μmol of QE/100 μmol | 37.1 ± 0.0 μmol of QE/100 μmol | 27.7 ± 2 µM | 23.8 µM | 8.55 ± 0.85 cde μmol of TE/μmol | 23.1 ± 1 µM | 26.1 ± 0.26 µM |  | CAA value (HepG2 cells; PBS wash): 22.2 ± 1 µmol QE/100 µmol; CAA value (HepG2 cells; no PBS wash): 22.6±0.2 μmol QE/100 μmol |
| O=c1c(O)c(-c2cc(O)c(O)c(O)c2)oc2cc(O)cc(O)c12 [Myricetin, myricetin] | 11.5 ± 0.7 μmol of QE/100 μmol | 28.4 ± 0.9 μmol of QE/100 μmol | 70.7 ± 4.2 µM | 31.1 ± 1 µM | 4.55±0.50 μmol of TE/μmol and 4.55 ± 0.50 fgh μmol of TE/μmol | 15.4 ± 0.5 µM | 16.1 ± 1.7 µM |  | CAA value (HepG2 cells; PBS wash): 33.1 ± 1 µmol QE/100 µmol; CAA value (HepG2 cells; no PBS wash): 36.8±3.8 μmol QE/100 μmol; EC50 (HepG2 cells; Homo sapiens, HepG2, Example 3, text, no PBS wash, read-out: EC50): 31.1 ± 1 µM |
| O=c1c(O[C@@H]2O[C@H](CO)[C@@H](O)[C@H](O)[C@H]2O)c(-c2ccc(O)c(O)c2)oc2cc(O)cc(O)c12 [Q-3-G, quercetin-3-β-D-glucoside] | 6.6 ± 0.1 μmol of QE/100 μmol | 7.7 ± 0.1 μmol of QE/100 μmol |  |  | 8.11 ± 1.86 cde μmol of TE/μmol |  |  | low amount of activity; also recorded: low or no cellular antioxidant activity | EC50 (HepG2 cells; Example 3, Table 7, PBS wash, flavonoids, mean ± SD, n=3, read-out: EC50): 122 ± 1 µM; EC50 (HepG2 cells; Example 3, Table 7, no PBS wash, flavonoids, mean ± SD, n=3, read-out: EC50): 115 ± 2 µM |
| O=c1c(O)c(-c2ccc(O)c(O)c2)oc2cc(O)cc(O)c12 [Quercetin, quercetin] | 105.7 ± 3.7 μmol of QE/100 μmol | 99.1 ± 4.8 μmol of QE/100 μmol | 7.71 ± 0.26 µM | 8.93 ± 0.44 µM | 8.04 ± 2.37 cde μmol of TE/μmol |  | 5.92 ± 0.07 µM |  | EC50 (HepG2 cells; Example 1, Table 1, PBS wash, pure phytochemical compounds, mean ± SD, n=3, read-out: EC50 for inhibition of peroxyl radical-induced DCFH oxidation): 5.09 ± 0.19 µM; EC50 (HepG2 cells; Homo sapiens, HepG2, Table 2, no PBS wash, mean ± SD over the trials, read-out: Interexperimental EC50): 5.89 ± 0.36 µM; EC50 (HepG2 cells; Homo sapiens, HepG2, Table 2, no PBS wash, one line per trial (trials 1-5), n=3, read-out: Intraexperimental EC50): 6.07 ± 0.25 µM; EC50 (HepG2 cells; Homo sapiens, HepG2, Table 3, PBS wash, mean ± SD over the trials, read-out: Interexperimental EC50): 5.12 ± 0.58 µM; EC50 (HepG2 cells; Homo sapiens, HepG2, Table 3, PBS wash, one line per trial (trials 1-5), n=3, read-out: Intraexperimental EC50): 4.48 ± 0.18 µM |
| O=C1c2c(O)cc(O)cc2O[C@H](c2ccc(O)c(O)c2)[C@H]1O [Taxifolin, taxifolin] |  |  | > 200 µM | > 200 µM | 9.74 ± 1.20 bcd μmol of TE/μmol | > 150 µM | > 150 µM | low or no cellular antioxidant activity; also recorded: low CAA | cellular antioxidant activity, result in words (HepG2 cells; PBS wash protocol): low activity at the concentrations tested; cellular antioxidant activity, result in words (HepG2 cells; no PBS wash protocol): activity only at doses much higher than their cytotoxic concentrations; also recorded: low, but unquantifiable, activity; also recorded: low but unquantifiable activity |
| O=c1c(O)c(-c2ccccc2)oc2cc(O)cc(O)c12 [galangin] | 107.8 ± 6.4 μmol of QE/100 μmol | 66.3 ± 1.1 μmol of QE/100 μmol | 7.56 ± 0.46 µM | 13.3 ± 0.2 µM | 2.63 ± 1.31 gh μmol of TE/μmol |  |  |  | ORAC ([1]; listed as Galangin): 2.63±1.31 μmol of TE/μmol |
| O=c1c(-c2ccc(O)cc2)coc2cc(O)cc(O)c12 [genistein] |  |  |  |  | 13.4±2.8 μmol of TE/μmol and 13.4 ± 2.8 a μmol of TE/μmol |  |  | no cellular antioxidant activity; also recorded: no CAA | cellular antioxidant activity, result in words (HepG2 cells; CAA assay, either protocol or protocol not specified, listed as Genistein): no activity; EC50 (HepG2 cells; [8]): no activity; EC50 (HepG2 cells; [9]): no activity |
| O=c1c(O)c(-c2ccc(O)cc2O)oc2cc(O)cc(O)c12 [morin] | 18.6 ± 18 μmol of QE/100 μmol | 32.1 ± 2.1 μmol of QE/100 μmol | 43.9 ± 4.3 µM | 27.6 ± 1.8 µM | 6.12±1.95 μmol of TE/μmol and 6.12 ± 1.95 efg μmol of TE/μmol |  |  |  | EC50 (HepG2 cells; Homo sapiens, HepG2, Example 3, text b252, PBS wash, read-out: EC50): 43.9 ± 0.43 µM; EC50 (HepG2 cells; Homo sapiens, HepG2, Example 3, text b252, no PBS wash, read-out: EC50): 27.6 ± 1.8 µM |
| O=C1C[C@@H](c2ccc(O)cc2)Oc2cc(O)cc(O)c21 [naringenin] |  |  |  |  | 9.23 ± 2.79 bcd μmol of TE/μmol |  |  | no activity; also recorded: no CAA | EC50 (HepG2 cells; [8]): no activity; EC50 (HepG2 cells; [9]): no activity; cellular antioxidant activity, result in words (HepG2 cells; no PBS wash protocol): none |
